Measurements published in patent US20100179095A1, “USE OF FOLATES FOR PRODUCING A PREPARATION SUITABLE FOR PREVENTING AND TREATING INFLAMMATION AND DISEASES ASSOCIATED WITH INFLAMMATION, ESPECIALLY FOR INFLUENCING THE INFLAMMATION MARKERS CRP AND SAA” (priority 2002, published 2010).
Read-outs that look alike come from different tables or passages of the source.

How the values were obtained:
[1] = tested on: homocysteine (total) (Hcys); experiment: Clinical study in haemodialysis patients: plasma homocysteine (total); type: in vivo, human
Method: For the patients for whom all the measured values could be ascertained completely at any time, a “matched pair” analysis was performed in addition. For the individual patient, the values before therapy were compared, pair-wise, with those after 3 and 6 weeks of therapy.

C-reactive protein (CRP) = experiment: Clinical study in haemodialysis patients: plasma CRP (immuno-nephelometry, N High Sensitivity CRP); type: in vivo, human; conditions: for CRP Median / CRP MW (mean): plasma, haemodialysis patients
From the text: (§1) For the individual patient, the values before therapy were compared, pair-wise, with those after 3 and 6 weeks of therapy.

[2] = tested on: serum amyloid A protein (SAA); experiment: Clinical study in haemodialysis patients: plasma SAA (immuno-nephelometry, N Latex SAA); type: in vivo, human; conditions: for SAA MW (mean) / SAA Median: plasma, haemodialysis patients
From the text: as §1

[3] = tested on: inflammation markers CRP and SAA; conditions: haemodialysis patients, 6 weeks of folate therapy
From the text: Clinical data were obtained via the prospective, randomised double blind study described below.
141 patients with terminal renal insufficiency, who were being treated with chronic haemodialysis on 3 days each week, and who were between 24 and 90 years old, were divided randomly into 4 therapy groups according to the sex of the patient and the presence or absence of a C677T point mutation on the gene for methylene tetrahydrofolate reductase. Randomisation based on the methylene tetrahydrofolate reductase mutation was effected in order to prevent an imbalance occurring within the individual therapy groups with regard to enzyme activity and thus with regard to folic acid metabolism also. […]
The first blood sample in the study was taken before the commencement of the administration of additional vitamins. […] The following measured quantities were each determined from plasma samples from the 3 blood samples taken: • homocysteine (total) (Hcys) • total folate (Fol) • vitamin B12 (B12) • vitamin B6 (B6) • neopterin (NEOP) • creatinine (Krea) • LDL- and HDL-cholesterol (HDL-Choi, LDL-Chol) • triglyceride (TG) • C-reactive protein (CRP) • amyloid A protein (SAA) […]
CRP and SAA were both measured by means of immuno-nephelometry and tests supplied by DadeBehring (N High Sensitivity CRP and N Latex SAA assays).

[4] = 3 w vs 6 w, value after 3 weeks vs value after 6 weeks
[5] = BL vs 3 w, initial value vs value after 3 weeks
[6] = BL vs 6 w, initial value vs value after 6 weeks
[7] = BL baseline before folate therapy
[8] = BL baseline before folate therapy, basic vitamin preparation in all
[9] = after 3 weeks (3 w) of therapy, 15 mg FTHF or MTHF, 7.5 mg PGA per day plus basic vitamin preparation
[10] = after 6 weeks (6 w) of therapy, 15 mg FTHF or MTHF, 7.5 mg PGA per day plus basic vitamin preparation

Row | Structure (SMILES) | Hcys matched pair analysis, significance of difference [1, 4] | Hcys matched pair analysis, significance of difference [1, 5] | Hcys matched pair analysis, significance of difference [1, 6] | CRP matched pair analysis, significance of difference (C-reactive protein (CRP); [4]) | CRP matched pair analysis, significance of difference (C-reactive protein (CRP); [5]) | CRP matched pair analysis, significance of difference (C-reactive protein (CRP); [6]) | CRP Median (C-reactive protein (CRP); [7]) | CRP MW (mean) (C-reactive protein (CRP); [8]) | CRP Median (C-reactive protein (CRP); after 3 weeks (3 w) of therapy) | CRP MW (mean) (C-reactive protein (CRP); [9]) | CRP Median (C-reactive protein (CRP); after 6 weeks (6 w) of therapy) | CRP MW (mean) (C-reactive protein (CRP); [10]) | SAA matched pair analysis, significance of difference [2, 4] | SAA matched pair analysis, significance of difference [2, 5] | SAA matched pair analysis, significance of difference [2, 6] | SAA MW (mean) [2, 7] | SAA Median [2, 7] | SAA MW (mean) ([2]; after 3 weeks (3 w) of therapy) | SAA Median ([2]; after 3 weeks (3 w) of therapy) | SAA MW (mean) ([2]; after 6 weeks (6 w) of therapy) | other results
1 | Nc1nc2c(c(=O)[nH]1)N(C=O)[C@H](CNc1ccc(C(=O)N[C@@H](CCC(=O)O)C(=O)O)cc1)CN2 (mixture of isomers) [FTHF, 5-formyl-(6R,S)-tetrahydrofolic acid] | Ø | * (p < 0.05) | ** (p < 0.01) | Ø | * (p < 0.05) | Ø | 9 mg/L | 16 mg/L | 5 mg/L | 9 mg/L | 6 mg/L | 18 mg/L | * (p < 0.05) | * (p < 0.05) | Ø | 28 mg/L | 6 mg/L | 8 mg/L | 4 mg/L | 35 mg/L | SAA Median ([2]; after 6 weeks (6 w) of therapy): 6 mg/L
2 | CN1c2c(nc(N)[nH]c2=O)NC[C@H]1CNc1ccc(C(=O)N[C@@H](CCC(=O)O)C(=O)O)cc1 (mixture of isomers) [MTHF, 5-methyl-(6R,S)-tetrahydrofolic acid] | Ø | Ø | * (p < 0.05) | * (p < 0.05) | * (p < 0.05) | ** (p < 0.01) | 11 mg/L | 19 mg/L | 8 mg/L | 11 mg/L | 7 mg/L | 9 mg/L | Ø | Ø | Ø | 34 mg/L | 11 mg/L | 19 mg/L | 10 mg/L | 13 mg/L | effect on inflammation markers CRP and SAA (acute phase response), in words [3]: reduce the acute phase response; effect on inflammation markers CRP and SAA (acute phase response), in words ([3]; listed as 5-methyl-(6R,S)-tetahydrofolic acid): most pronounced decrease in inflammation markers; SAA Median ([2]; after 6 weeks (6 w) of therapy): 9 mg/L
3 | Nc1nc2ncc(CNc3ccc(C(=O)N[C@@H](CCC(=O)O)C(=O)O)cc3)nc2c(=O)[nH]1 [PGA, folic acid] | Ø | * (p < 0.05) | * (p < 0.05) | Ø | Ø | Ø | 7 mg/L | 10 mg/L | 8 mg/L | 10 mg/L | 6 mg/L | 9 mg/L | * (p < 0.05) | Ø | Ø | 11 mg/L | 7 mg/L | 12 mg/L | 6 mg/L | 13 mg/L | SAA Median ([2]; after 6 weeks (6 w) of therapy): 10 mg/L
